Legend:
[1] = test system: antibodies in sera from SARS patients (sera 1a, 1b, 2, 6, 37, 62, London, SARS-yellow, SARS-green); format: binding, human; set-up: Binding of serum 6 to linear peptides of protein X1 of SARS-CoV Urbani / Binding of serum 37 to linear peptides of protein X1 of SARS-CoV Urbani / Binding of serum 6 to looped/cyclic peptide (PEPSCAN-ELISA) / Binding of serum 37 to looped/cyclic peptide (PEPSCAN-ELISA) / Binding of serum 37 to looped/cyclic peptides of protein X1 of SARS-CoV Urbani / Binding of serum 6 to linear peptides of protein X2 / Binding of serum 37 to linear peptides of protein X2 / Binding of serum 37 to looped/cyclic peptides of protein X2 of SARS-CoV Urbani / Binding of serum 6 to linear peptides of protein M of SARS-CoV Urbani / Binding of serum 37 to linear peptides of protein M of SARS-CoV Urbani / Binding of serum 6 to looped/cyclic peptides of protein M of SARS-CoV Urbani / Binding of serum 37 to looped/cyclic peptides of protein M of SARS-CoV Urbani / Binding of serum 6 to linear peptides of protein X3 of SARS-CoV Urbani / Binding of serum 37 to linear peptides of protein X3 of SARS-CoV Urbani / Binding of serum 37 to looped/cyclic peptides of protein X3 of SARS-CoV Urbani / Binding of serum 6 to linear peptides of protein X4 of SARS-CoV Urbani / Binding of serum 37 to linear peptides of protein X4 of SARS-CoV Urbani / Binding of serum 37 to looped/cyclic peptides of protein X4 of SARS-CoV Urbani / Binding of serum 6 to linear peptides of protein X5 of SARS-CoV Urbani / Binding of serum 37 to linear peptides of protein X5 of SARS-CoV Urbani / Binding of serum 37 to looped/cyclic peptides of protein X5 of SARS-CoV Urbani / Binding of serum 6 to linear peptides of protein N of SARS-CoV Urbani / Binding of serum 37 to linear peptides of protein N of SARS-CoV Urbani / Binding of serum 6 to linear peptide (PEPSCAN-ELISA) / Binding of serum 1a to looped/cyclic peptides of protein N of SARS-CoV Urbani / Binding of serum 1b to looped/cyclic peptides of protein N of SARS-CoV Urbani / Binding of serum 2 to looped/cyclic peptides of protein N of SARS-CoV Urbani / Binding of serum 6 to looped/cyclic peptides of protein N of SARS-CoV Urbani / Binding of serum 37 to looped/cyclic peptides of protein N of SARS-CoV Urbani / Binding of serum 62 to looped/cyclic peptides of protein N of SARS-CoV Urbani / Binding of serum London to looped/cyclic peptides of protein N of SARS-CoV Urbani / Binding of serum SARS-green to looped/cyclic peptides of protein N of SARS-CoV Urbani: unit not given here
[2] = test system: control sera (pooled serum of ten healthy LUMC hospital workers; commercial negative donor pooled serum from the Dutch bloodbank); format: binding, human; set-up: Binding of Control serum LUMC to linear peptides / Binding of Control serum Blood-bank to linear peptides / Binding of Control serum LUMC to looped peptides / Binding of Control Serum Blood-Bank to Looped peptides / Binding of Control serum LUMC to linear peptides of the protein M of SARS-CoV Urbani / Binding of Control serum Blood-bank to linear peptides of the protein M of SARS-CoV Urbani / Binding of Control serum LUMC to looped peptides of the protein M of SARS-CoV Urbani / Binding of Control Serum Blood-Bank to Looped peptides of the protein M of SARS-CoV Urbani: unit not given here
[3] = test system: rabbit serum obtained by immunizing a rabbit with the SARS-CoV strain Frankfurt 1; format: binding; set-up: Binding of a rabbit serum to linear peptides / Binding of a rabbit serum to looped peptides / Rabbit serum linear peptides / Rabbit serum looped peptides / Binding of a rabbit serum to linear peptides of protein N of SARS-CoV Urbani (Rabbit serum linear peptides) / Binding of a rabbit serum to looped/cyclic peptides of protein N of SARS-CoV Urbani (Rabbit serum looped peptides): unit not given here

Sequence: VLLKEPCPSGTYEGN
- Binding of serum 1a to linear peptides of protein X4 of SARS-CoV Urbani [1]: 0.8
- Binding of serum 1a to looped/cyclic peptides of protein X4 of SARS-CoV Urbani [1]: 0.8
- Binding of serum 1b to linear peptides of protein X4 of SARS-CoV Urbani [1]: 0.7
- Binding of serum 1b to looped/cyclic peptides of protein X4 of SARS-CoV Urbani [1]: 0.7
- Binding of serum 2 to linear peptides of protein X4 of SARS-CoV Urbani [1]: 0.4
- Binding of serum 2 to looped/cyclic peptides of protein X4 of SARS-CoV Urbani [1]: 0.6
- Binding of serum 6 to linear peptides of protein X4 of SARS-CoV Urbani [1]: 0.7
- Binding of serum 6 to looped/cyclic peptides of protein X4 of SARS-CoV Urbani [1]: 0.7
- Binding of serum 37 to linear peptides of protein X4 of SARS-CoV Urbani [1]: 0.7
- Binding of serum 37 to looped/cyclic peptides of protein X4 of SARS-CoV Urbani [1]: 0.8
- Binding of serum 62 to linear peptides of protein X4 of SARS-CoV Urbani [1]: 0.8
- Binding of serum 62 to looped/cyclic peptides of protein X4 of SARS-CoV Urbani [1]: 0.7
- Binding of serum London to linear peptides of protein X4 of SARS-CoV Urbani [1]: 0.8
- Binding of serum London to looped/cyclic peptides of protein X4 of SARS-CoV Urbani [1]: 0.3
- Binding of serum SARS-green to linear peptides of protein X4 of SARS-CoV Urbani [1]: 0.6
- Binding of serum SARS-green to looped/cyclic peptides of protein X4 of SARS-CoV Urbani [1]: 0.5
- Binding of serum SARS-yellow to linear peptides of protein X4 of SARS-CoV Urbani [1]: 0.1
- Binding of serum SARS-yellow to looped/cyclic peptides of protein X4 of SARS-CoV Urbani [1]: 0.4
- Binding of Control Serum Blood-Bank to Looped peptides [2]: 0.9
- Binding of Control serum Blood-bank to linear peptides [2]: 0.8
- Binding of Control serum LUMC to linear peptides [2]: 0.7
- Binding of Control serum LUMC to looped peptides [2]: 0.8
- Rabbit serum linear peptides [3]: 0.4
- Rabbit serum looped peptides [3]: 0.3

Sequence: VLPFHRWHTMVQTCT
- Binding of serum 1a to linear peptides of protein X5 of SARS-CoV Urbani [1]: 0.8
- Binding of serum 1a to looped/cyclic peptides of protein X5 of SARS-CoV Urbani [1]: 0.7
- Binding of serum 1b to linear peptides of protein X5 of SARS-CoV Urbani [1]: 0.6
- Binding of serum 1b to looped/cyclic peptides of protein X5 of SARS-CoV Urbani [1]: 0.5
- Binding of serum 2 to linear peptides of protein X5 of SARS-CoV Urbani [1]: 0.7
- Binding of serum 2 to looped/cyclic peptides of protein X5 of SARS-CoV Urbani [1]: 0.7
- Binding of serum 6 to linear peptides of protein X5 of SARS-CoV Urbani [1]: 0.5
- Binding of serum 6 to looped/cyclic peptides of protein X5 of SARS-CoV Urbani [1]: 0.4
- Binding of serum 37 to linear peptides of protein X5 of SARS-CoV Urbani [1]: 0.7
- Binding of serum 37 to looped/cyclic peptides of protein X5 of SARS-CoV Urbani [1]: 0.5
- Binding of serum 62 to linear peptides of protein X5 of SARS-CoV Urbani [1]: 0.7
- Binding of serum 62 to looped/cyclic peptides of protein X5 of SARS-CoV Urbani [1]: 0.3
- Binding of serum London to linear peptides of protein X5 of SARS-CoV Urbani [1]: 0.8
- Binding of serum London to looped/cyclic peptides of protein X5 of SARS-CoV Urbani [1]: 0.2
- Binding of serum SARS-green to linear peptides of protein X5 of SARS-CoV Urbani [1]: 0.6
- Binding of serum SARS-green to looped/cyclic peptides of protein X5 of SARS-CoV Urbani [1]: 1.4
- Binding of serum SARS-yellow to linear peptides of protein X5 of SARS-CoV Urbani [1]: 0.4
- Binding of serum SARS-yellow to looped/cyclic peptides of protein X5 of SARS-CoV Urbani [1]: 0.3
- Binding of Control Serum Blood-Bank to Looped peptides [2]: 0.6
- Binding of Control serum Blood-bank to linear peptides [2]: 0.6
- Binding of Control serum LUMC to linear peptides [2]: 0.5
- Binding of Control serum LUMC to looped peptides [2]: 0.0
- Rabbit serum linear peptides [3]: 0.6
- Rabbit serum looped peptides [3]: 0.0

Sequence: VPLRGTIVTRPLMES
- Binding of serum 1a to linear peptides of protein M of SARS-CoV Urbani [1]: 0.7
- Binding of serum 1b to linear peptides of protein M of SARS-CoV Urbani [1]: 0.6
- Binding of serum 2 to linear peptides of protein M of SARS-CoV Urbani [1]: 0.7
- Binding of serum 6 to linear peptides of protein M of SARS-CoV Urbani [1]: 0.4
- Binding of serum 37 to linear peptides of protein M of SARS-CoV Urbani [1]: 0.6
- Binding of serum 62 to linear peptides of protein M of SARS-CoV Urbani [1]: 0.5
- Binding of serum London to linear peptides of protein M of SARS-CoV Urbani [1]: 0.4
- Binding of serum SARS-green to linear peptides of protein M of SARS-CoV Urbani [1]: 0.5
- Binding of serum SARS-yellow to linear peptides of protein M of SARS-CoV Urbani [1]: 0.4
- Recognition of the peptide by sera of SARS-CoV infected individuals, and form (linear, looped/cyclic) in which it is recognized [1]: recognized in looped/cyclic form
- Binding of Control Serum Blood-Bank to Looped peptides of the protein M of SARS-CoV Urbani [2]: 0.6
- Binding of Control serum Blood-bank to linear peptides of the protein M of SARS-CoV Urbani [2]: 0.9
- Binding of Control serum LUMC to linear peptides of the protein M of SARS-CoV Urbani [2]: 0.6
- Binding of Control serum LUMC to looped peptides of the protein M of SARS-CoV Urbani [2]: 0.7
- Rabbit serum linear peptides [3]: 0.1
- Rabbit serum looped peptides [3]: 0.6

— US20070128217A1 (priority 2003, published 2007)
